Assay results reported in PubChem BioAssay (NCI).
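Results reflect a 48-hour exposure of cells in 96-well plates to compound at five concentrations. GI50 is the concentration that inhibits growth by half. TGI denotes the concentration required for complete inhibition of growth.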

Experiments:
Experiment in all cases: growth of human tumour cells (NCI), 48 h
786-0 renal = test system: 786-0 renal
COLO 205 colon = test system: COLO 205 colon
HL-60(TB) leukemia = test system: HL-60(TB) leukemia
KM12 colon = test system: KM12 colon
LOX IMVI melanoma = test system: LOX IMVI melanoma
M14 melanoma = test system: M14 melanoma
MDA-MB-435 = test system: MDA-MB-435
T-47D breast = test system: T-47D breast
U251 CNS = test system: U251 CNS
UACC-62 melanoma = test system: UACC-62 melanoma

`N#Cc1c(NC(=O)c2ccc(F)cc2)sc2c1CCCC2` gave a GI50 (786-0 renal) greater than 25 µM, a TGI (786-0 renal) greater than 25 µM and a GI50 (COLO 205 colon) greater than 25 µM. It also gave a TGI (COLO 205 colon) greater than 25 µM, a GI50 (HL-60(TB) leukemia) greater than 25 µM and a TGI (HL-60(TB) leukemia) greater than 25 µM. It also gave a GI50 (KM12 colon) greater than 25 µM, a TGI (KM12 colon) greater than 25 µM and a GI50 (LOX IMVI melanoma) greater than 25 µM. It also gave a TGI (LOX IMVI melanoma) greater than 25 µM, a GI50 (M14 melanoma) greater than 25 µM and a TGI (M14 melanoma) greater than 25 µM. It also gave a GI50 (MDA-MB-435) greater than 25 µM, a TGI (MDA-MB-435) greater than 25 µM and a GI50 (T-47D breast) greater than 25 µM. The TGI (T-47D breast) was greater than 25 µM, the GI50 (U251 CNS) was greater than 25 µM and the TGI (U251 CNS) was greater than 25 µM. The GI50 (UACC-62 melanoma) was greater than 25 µM and the TGI (UACC-62 melanoma) was greater than 25 µM.

Molecule `O=C(O)c1ccc(C(O)(c2ccccc2)c2ccccc2)cc1` has a TGI (786-0 renal) greater than 100 µM, a TGI (COLO 205 colon) greater than 100 µM and a TGI (HL-60(TB) leukemia) greater than 100 µM. It also gave a TGI (KM12 colon) greater than 100 µM, a TGI (LOX IMVI melanoma) greater than 100 µM and a TGI (M14 melanoma) greater than 100 µM. The TGI (MDA-MB-435) was greater than 100 µM, the TGI (T-47D breast) was greater than 100 µM and the TGI (U251 CNS) was greater than 100 µM. The TGI (UACC-62 melanoma) was greater than 100 µM.

For `COC1=C(C)C(=O)c2c(c(CCCl)c3n2CCC3OC(C)=O)C1=O` (stereo not given), the GI50 (786-0 renal) was 0.287 µM, the TGI (786-0 renal) was 1.24 µM and the GI50 (COLO 205 colon) was 0.136 µM. It also gave a TGI (COLO 205 colon) of 0.399 µM, a GI50 (HL-60(TB) leukemia) of 2.43 µM and a TGI (HL-60(TB) leukemia) of 33.6 µM. It also gave a GI50 (KM12 colon) of 0.642 µM, a TGI (KM12 colon) of 3.05 µM and a GI50 (LOX IMVI melanoma) of 0.204 µM. The TGI (LOX IMVI melanoma) was 0.927 µM, the GI50 (M14 melanoma) was 0.171 µM and the TGI (M14 melanoma) was 0.592 µM. It also gave a GI50 (MDA-MB-435) of 0.523 µM, a TGI (MDA-MB-435) of 1.97 µM and a GI50 (T-47D breast) of 8.22 µM. The TGI (T-47D breast) was greater than 94.6 µM, the GI50 (U251 CNS) was 0.273 µM and the TGI (U251 CNS) was 13.4 µM. It also gave a GI50 (UACC-62 melanoma) of 0.208 µM and a TGI (UACC-62 melanoma) of 0.578 µM.

In the case of `CCOC(=O)C1=C(C)NC(=O)NC1CN1C(=O)c2ccccc2C1=O` (stereo not given), the GI50 (786-0 renal) is reported as greater than 100 µM, the TGI (786-0 renal) is reported as greater than 100 µM and the GI50 (COLO 205 colon) is reported as greater than 100 µM. For the same molecule, the TGI (COLO 205 colon) was greater than 100 µM, the GI50 (HL-60(TB) leukemia) was greater than 100 µM and the TGI (HL-60(TB) leukemia) was greater than 100 µM. The GI50 (KM12 colon) was greater than 100 µM, the TGI (KM12 colon) was greater than 100 µM and the GI50 (LOX IMVI melanoma) was greater than 100 µM. The TGI (LOX IMVI melanoma) was greater than 100 µM, the GI50 (M14 melanoma) was greater than 100 µM and the TGI (M14 melanoma) was greater than 100 µM. For the same molecule, the GI50 (MDA-MB-435) was greater than 100 µM, the TGI (MDA-MB-435) was greater than 100 µM and the GI50 (T-47D breast) was greater than 100 µM. For the same molecule, the TGI (T-47D breast) was greater than 100 µM, the GI50 (U251 CNS) was greater than 100 µM and the TGI (U251 CNS) was greater than 100 µM. It also gave a GI50 (UACC-62 melanoma) greater than 100 µM and a TGI (UACC-62 melanoma) greater than 100 µM.
